Data published in patent publication EP0288278B1, “Chemical derivatives of GHL-CU” (PROCYTE CORPORATION, priority 1987, dated 1994).

Test system: incision wounds
Assay: Wound healing of incision wounds in mice
Format: in vivo
Details: incision wounds swabbed daily, scored after 5 days
Text: In mice, incision wounds to the flanks (six 1.5 cm wounds per animal) were swabbed daily with either a solution containing GHL-Cu (100 micrograms per mL) in phosphate-buffered saline (PBS) or PBS alone (6 animals each group). After 5 days, the wounds were scored 1.0 for complete closure, 0.5 for partial closure, and 0.0 for non-closure.

## glycyl-L-histidyl-L-lysine n-palmityl ester: copper (II)
  healing of wounds in mice: significantly enhances the wound-healing process

## glycyl-L-histidyl-L-lysine n-stearyl ester: copper (II)
  healing of wounds in mice: significantly enhances the wound-healing process
